Measured values taken from paper PMC9926234, “Iterative computational design and crystallographic screening identifies potent inhibitors targeting the Nsp3 macrodomain of SARS-CoV-2” (Proceedings of the National Academy of Sciences of the …, 2023).
Where “and” joins values, the source holds several entries; their conditions need not be identical. Equal values may be shown once. Read-outs that look alike come from different tables or passages of the source.

Tests used:
[1] = tested on: P-glycoprotein (human MDR1); experiment: MDR1-MDCK II cell permeability; details: dog, MDCK-MDR1, pH 7.4
[2] = target: T1, SARS-CoV-2 NSP3 Mac1 (Severe acute respiratory syndrome coronavirus 2, UniProt P0DTD1); experiment: biochemical; format: binding
[3] = target: T2, TARG1 (Homo sapiens, UniProt Q9Y530); experiment: adapted HTRF-based peptide displacement assay (off-target); format: binding; details: for binding / activity against TARG1: compound at 160 µM
T2 construct: Targ1_HTRF; HTRF assay; pET22b(+); His6, TEV; 1-153; made in house
T2 sequence (Q9Y530 with tags, fused parts or gaps): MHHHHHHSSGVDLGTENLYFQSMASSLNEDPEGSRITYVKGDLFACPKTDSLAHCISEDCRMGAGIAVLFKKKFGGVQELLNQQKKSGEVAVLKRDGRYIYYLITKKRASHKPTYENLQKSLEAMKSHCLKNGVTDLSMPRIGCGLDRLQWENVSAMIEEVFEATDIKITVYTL

[4] = target: T3, MacroD2 (Homo sapiens, UniProt A1Z1Q3); experiment: as above; format: binding
T3 construct: MacroD2_HTRF; HTRF assay; pET22b(+); His6, TEV, Avi; made in house
T3 sequence (A1Z1Q3 with tags, fused parts or gaps): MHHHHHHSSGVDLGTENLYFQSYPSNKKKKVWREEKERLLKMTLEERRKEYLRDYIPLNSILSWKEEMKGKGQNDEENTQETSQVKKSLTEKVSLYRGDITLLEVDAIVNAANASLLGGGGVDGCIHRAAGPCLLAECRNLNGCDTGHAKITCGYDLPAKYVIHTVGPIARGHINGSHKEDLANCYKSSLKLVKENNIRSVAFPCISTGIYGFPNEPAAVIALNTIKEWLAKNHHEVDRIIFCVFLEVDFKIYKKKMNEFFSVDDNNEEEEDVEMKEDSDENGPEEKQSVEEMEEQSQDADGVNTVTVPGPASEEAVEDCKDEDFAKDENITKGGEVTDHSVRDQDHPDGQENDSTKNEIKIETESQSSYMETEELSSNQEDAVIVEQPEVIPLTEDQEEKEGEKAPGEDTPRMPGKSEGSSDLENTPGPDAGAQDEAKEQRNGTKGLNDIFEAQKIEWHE

[5] = target: T1, SARS-CoV-2 NSP3 Mac1; format: binding; details: for 1-BDC (PanDDA): 1 minus background density correction; for 1-BDC (PanDDA) / Refined occupancy: crystal soaking of Mac1; for Refined occupancy: ligand occupancy after refinement (phenix.refine)
[6] = tested on: MDR1-MDCKII cells; experiment: MDR1-MDCK II cell permeability; details: MDR1-MDCKII cells
[7] = target: T1, SARS-CoV-2 NSP3 Mac1; format: binding; set-up: contains a conserved macrodomain enzyme (Mac1)
Outline: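 ΔTma values are thermal shifts relative to a co-located DMSO-only control, read with 5 µM Fluorescent Yellow dye. Each compound was tested in triplicate over seven concentrations (two-fold steps, top 1,000 or 100 μM). Spearman correlation of concentration versus ΔTma tested whether the shift was dose-responsive.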

[8] = tested on: SARS-CoV-2 NSP3 Mac1; experiment: Overall hit call (binding in crystallographic soaking or the HTRF-based binding assay)
Text: Supplement pnas.2212931120.sd01.xlsx, sheet "Compound Summary" | column: HIT*

[9] = tested on: P-glycoprotein (human MDR1); experiment: in vitro; details: dog, MDCK-MDR1, pH 7.4, permeability, MDR1-MDCKII
[10] = target: T1, SARS-CoV-2 NSP3 Mac1; set-up: contains a conserved macrodomain enzyme (Mac1); differential scanning fluorimetry, maximum thermal upshift; details: binder
[11] = HTRF ADPr-peptide displacement from SARS-CoV-2 Mac1, read-out: IC50
[12] = PanDDA event map, crystal soak, Compound_concentration 100 mM, Echo_dispense_volume 40 nl
[13] = crystal soak, Compound_concentration 100 mM, Echo_dispense_volume 40 nl, PanDDA run (background map) dmso_34, nohits_35 or nohits_62

## CC(C(=O)O)c1cccc(C(=O)c2ccccc2)c1 (stereo not drawn) [Ketoprofen]
[1]
  Papp A→B at 90 min, 10 µM: 17.6 ± 2.5 ×10⁻⁶ cm/s
  Papp B→A at 90 min, 10 µM: 16.1 ± 0.5 ×10⁻⁶ cm/s

## O=C(O)C1(F)CN(c2ncnc3[nH]c4cc(F)ccc4c23)CC12CCC2 (stereo not drawn) [LL1_0023]
[2]; [11]
  IC50: 6 to 10 µM and 5.8 to 10.9 µM
[2]; HTRF, read-out: IC50
  IC50: 5.8 µM and 10.9 µM
[2]; Ki estimation from HTRF-derived IC50, Cheng-Prusoff, peptide 400nM, Kd 2.68µM, read-out: Ki***
  Ki: 5 µM and 9.5 µM
[3]; compound at 50 µM
  displacement of the ADPr-conjugated peptide (off-target activity): active
[3]; compound at 1 mM
  displacement of the ADPr-conjugated peptide (off-target activity): 50%
[4]; compound at 1 mM
  displacement of the ADPr-conjugated peptide (off-target activity): 50%
[5]; PanDDA 1-BDC value of the event, crystal soak, compound concentration 100 mM, per dataset
  1-BDC: 0.28
[5]; PanDDA event map
  1-BDC (PanDDA): 0.16
[5]; crystal soak, compound concentration 100 mM, per dataset
  PanDDA hit?: TRUE
[5]; ligand modeled from this dataset, compound concentration 100 mM
  Modeled?: TRUE
[5]
  Refined occupancy: 32
[5]; true hit = binding in crystallographic soaking or the HTRF-based binding assay
  HIT*: Y
[6]
  permeability relative to the Z8539 scaffold: 3 fold
[7]; DSF dose responsiveness, 1 µM nsp3 mac1, adj p given
  Spearman est (compound concentration vs apparent Tm): 0.98
[7]; maximal thermal upshift
  DSF max dTma: 4.53 ˚C

## Fc1ccc2c(c1)[nH]c1ncnc(N3CCOC(c4nnn[nH]4)C3)c12 (stereo not drawn) [LL114_0008]
[2]; HTRF ADPr-conjugated peptide displacement, read-out: IC50
  IC50: 17.2 µM
[2]; [11]
  IC50: 17 µM
[2]; read-out: Ki***
  Ki: 15 µM
[3]; compound at 50 µM
  displacement of the ADPr-conjugated peptide (off-target activity): showed measurable peptide displacement
[4]; compound at 50 µM
  displacement of the ADPr-conjugated peptide (off-target activity): showed measurable peptide displacement
[5]; PanDDA event map
  1-BDC (PanDDA): 0.25
[5]; [12]
  1-BDC: 0.25
[5]; [13]
  PanDDA hit?: TRUE
[5]; ligand modeled, crystal soak, Compound_concentration 100 mM, Echo_dispense_volume 40 nl
  Modeled?: TRUE
[5]
  Refined occupancy: 50
[8]
  HIT*: Y

## O=C1CCCN1Nc1ncnc2[nH]c3cc(F)ccc3c12 [LRH-0003]
[3]
  binding / activity against TARG1: neither neutral compounds LRH-0003 and LRH-0008 had measurable binding
[4]; compound at 160 µM
  binding / activity against MacroD2: neither neutral compounds LRH-0003 and LRH-0008 had measurable binding
[9]; apical to basal
  Papp: 13.8 ×10⁻⁶ cm/s
[9]; basal to apical
  Papp: 24.3 ×10⁻⁶ cm/s

## O=C(O)[C@H]1CCCC[C@H]1Nc1ncnc2[nH]c3cc(F)ccc3c12 [LRH-0021]
[2]
  binding to Mac1 in the HTRF assay, result in words: equipotent to LRH-0003
[2]; IC50 [µM], HTRF ADPr-conjugated peptide displacement
  IC50: 1.7 µM
[2]; Ki*** [µM]
  Ki: 1.5 µM
[3]
  binding / activity against TARG1: showed binding
[5]; PanDDA event map
  1-BDC (PanDDA): 0.12
[5]; [12]
  1-BDC: 0.05
[5]; PanDDA event map, crystal soak, Compound_concentration 100 mM, Echo_dispense_volume 80 nl
  1-BDC: 0.12
[5]; [13]
  PanDDA hit?: TRUE
[5]; crystal soak, Compound_concentration 100 mM, Echo_dispense_volume 80 nl, PanDDA run dmso_34
  PanDDA hit?: TRUE
[5]; ligand modeled, crystal soak, Compound_concentration 100 mM, Echo_dispense_volume 80 nl
  Modeled?: TRUE
[5]
  Refined occupancy: 24
[8]
  HIT*: Y
[9]; apical to basal
  Papp: 12 ×10⁻⁶ cm/s
[9]; basal to apical
  Papp: 9.1 ×10⁻⁶ cm/s

## O=C(c1cn[nH]c(=O)c1)N1CCC(CF)(C(=O)O)C1 (stereo not drawn) [R8407, REAL250001448407]
[10]
  DSF max dTma: 0 degC

## Nc1ncnc2c1ncn2Cc1ccc(Cl)cn1 [Z0078, ZINC000559260078]
[10]
  DSF max dTma: 0.98 degC

## Nc1ncnc2c1ncn2Cc1cccc(C(F)(F)F)c1 [Z0893, ZINC000110510893]
[10]
  DSF max dTma: 0.5 degC

## CC(CSc1nnc2[nH]cnn12)c1ccccc1 (stereo not drawn) [Z3280, ZINC000920153280]
[10]
  DSF max dTma: 0 degC

## Nc1ncnc2c1ncn2Cc1cc(-c2ccco2)on1 [Z4827, ZINC000681764827]
[10]
  DSF max dTma: 0.63 degC
